From patent US12319752B2, “Heparin-binding cationic peptide self-assembling peptide amphiphiles useful against drug-resistant bacteria” (priority 2016, dated 2025)
Residues, ends and D or L forms follow the SMILES beside them. *: point of attachment. Palmitoyl = CCCCCCCCCCCCCCCC(=O)*

Tested on: human dermal fibroblasts (HDF)
Assay: Cytotoxicity, MTS cell viability assay
Type: cell-based
Conditions: HDF, concentrations higher than 20 μM, 24 h
Procedure: To evaluate the cytotoxicity of the peptides, human dermal fibroblasts (HDF) were treated for 24 h, and cell viability was determined via MTS assays (FIG. 13).
Human dermal fibroblast cells (HDF, Detroit 551, ATCC #CCL-110) were cultured in Dulbecco's modified Eagle medium (DMEM; Fisher, Pittsburgh, PA) supplemented with 10% fetal bovine serum (FBS) and 1% penicillin/streptomycin for 24 h. All cells were cultured to 90% confluence in a 37° C., humidified, 5% CO2/95% air environment. Cells at passage numbers of 4-7 were used in these experiments.
The MTS cell viability assay kit (Promega, Madison, WI, USA) was used to determine cytotoxicity of the peptides. First, HDF cells were seeded on a 96-well plate at a cell density of 5,000 cells/well (equal to 15,385 cells/cm^2), and were incubated overnight for cell adhesion. After overnight incubation, the cell medium in each well was replaced by 100 μL of cell culture medium containing various concentrations of peptides (20 μM to 100 μM). The control samples were cells incubated in cell culture medium only. After 24 h, the treatment medium in each well was removed. The cells were washed with phosphate buffered saline (PBS, pH=7.4, Fisher, PA, USA) and 100 μL of fresh cell culture medium was added to each well, followed by the addition of 20 μL of the MTS reagent. After the cells were incubated for 2.5 h, the absorbance was measured at a wavelength of 490 nm by a spectrophotometer (SpectraMax M3, Molecular Devices, Molecular Devices, Sunnyvale, CA, USA). To estimate the cell numbers in each well, a standard curve expressing the linear correlation between different cell densities and optical densities (R^2>0.95) was plotted, and the cell numbers were determined with this standard curve from the OD490 value recorded in each sample. The cell viability of each sample was calculated by: Cell viability=[(cell density per mL of treated sample)/(cell density per mL of control sample)]×100%. Data were expressed by standard error of the mean (±S.E.M.) and N=3, *p<0.05 compared with control samples.

CCCCCCCCCCCCCCCC(=O)N[C@H](C(=O)N[C@H](C(=O)N[C@H](C(=O)N[C@H](C(=O)N[C@@H](CCCCN)C(=O)N[C@@H](CCCCN)C(=O)N[C@@H](CCCCN)C(=O)N[C@@H](CCCCN)C(=O)O)C(C)C)C(C)C)C(C)C)C(C)C [CVK-PA, C16-V4K4 (SEQ ID NO: 1), reference compound] (Palmitoyl-VVVVKKKK-OH)
cell death: over 40%
